# Data published in ChEMBL document CHEMBL3112464, “Novel, sulfonamide linked inhibitors of the hepatitis C virus NS3 protease” (Bioorg Med Chem Lett, 2014).
# Key:
# [1] = test system: Hepatitis C virus; assay: Antiviral activity against HCV genotype 1b infected in Rluc cells by 384 well-format assay; assay type: functional, organism-based, Hepacivirus hominis
# [2] = Inhibition of HCV genotype 1b NS3/4A protease; set-up: species or system Hepatitis C virus subtype 1b
Structure (SMILES),EC50 [1],IC50 [2]
C=C[C@@H]1C[C@]1(NC(=O)[C@@H]1C[C@@H](Oc2cc(-c3nc(C(C)C)cs3)nc3c(C)c(OC)ccc23)[C@H]2CCCC(=O)N21)C(=O)NS(=O)(=O)C1CC1,> 2000 nM,47 nM
COc1ccc2c(O[C@@H]3C[C@H]4C(=O)N[C@]5(C(=O)O)C[C@H]5/C=C\CCCCCS(=O)(=O)N4C3)cc(-c3nc(C(C)C)cs3)nc2c1C,> 2000 nM,747 nM
COc1ccc2c(O[C@@H]3C[C@H]4C(=O)N[C@]5(C(=O)NS(=O)(=O)C6CC6)C[C@H]5CCCCCCCS(=O)(=O)N4C3)cc(-c3nc(C(C)C)cs3)nc2c1C,89 nM,4.7 nM
COc1ccc2c(O[C@@H]3C[C@H]4C(=O)N[C@]5(C(=O)O)C[C@H]5/C=C\CCCCCCS(=O)(=O)N4C3)cc(-c3nc(C(C)C)cs3)nc2c1C,> 2000 nM,712 nM
COc1ccc2c(O[C@@H]3C[C@H]4C(=O)N[C@]5(C(=O)NS(=O)(=O)C6CC6)C[C@H]5/C=C\CCCCCCS(=O)(=O)N4C3)cc(-c3nc(C(C)C)cs3)nc2c1C,440 nM,13 nM
COc1ccc2c(O[C@@H]3C[C@H]4C(=O)N[C@]5(C(=O)NS(=O)(=O)C6CC6)C[C@H]5CCCCCCCCS(=O)(=O)N4C3)cc(-c3nc(C(C)C)cs3)nc2c1C,257 nM,7.4 nM
C=C[C@@H]1C[C@]1(NC(=O)[C@@H]1C[C@@H](Oc2cc(-c3nc(C(C)C)cs3)nc3c(C)c(OC)ccc23)[C@H]2CCCS(=O)(=O)N21)C(=O)NS(=O)(=O)C1CC1,> 2000 nM,639 nM

# Now those with a lower EC50 [1], led by results:
EC50 [1],IC50 [2],Structure (SMILES)
79 nM,2.9 nM,COc1ccc2c(O[C@@H]3C[C@H]4C(=O)N[C@]5(C(=O)NS(=O)(=O)C6CC6)C[C@H]5/C=C\CCCCCS(=O)(=O)N4C3)cc(-c3nc(C(C)C)cs3)nc2c1C
5.8 nM,0.3 nM,COc1ccc2c(O[C@@H]3C[C@H]4C(=O)N[C@]5(C(=O)NS(=O)(=O)C6CC6)C[C@H]5/C=C\CCCCCCC(=O)N4C3)cc(-c3nc(C(C)C)cs3)nc2c1C
4 nM,0.4 nM,COc1ccc2c(O[C@@H]3C[C@H]4C(=O)N[C@]5(C(=O)NS(=O)(=O)C6CC6)C[C@H]5/C=C\CCCCCC(=O)N4C3)cc(-c3nc(C(C)C)cs3)nc2c1C
